This note sets out measurements from EPA's ToxValDB 9.5.

The subject of data set [1] is Rattus norvegicus. As to conditions: for LOEL / NOEL: Hershberger, gavage.
Data set [2] deals with Rattus norvegicus. The conditions noted are these: developmental; oral; gavage; M; Sprague-Dawley; generation: F1; F1: Testosterone (Testes) production.
Data set [3] relates to Rattus norvegicus.
Data set [4] relates to Rattus norvegicus. The conditions noted are these: oral; for NOEL: subchronic, diet, Fischer 344, Body Weight Changes: decrease + Food Consumption: decrease + Hematology: Hgb decrease, Plt increase + Blood Chemistry: gamma-GTP increase.
In data set [5] the test system is Rattus norvegicus. The source holds these as a separate data set.
Where [6] appears, read: uterotrophic, duration: 3 days, oral, Active.
Where [7] appears, read: duration: 10 days, oral, Wistar, active + Negative + Antiandrogenic + anti-androgenic.
The mark [8] stands for this setting: uterotrophic, duration: 3 days, injection, subcutaneous, Active.
Setting [9] is: short-term, duration: 4 weeks, oral, gavage, F, Sprague-Dawley.
Setting [10] is: short-term, duration: 4 weeks, oral, gavage, M, Sprague-Dawley.
[11] abbreviates: duration: 7 days, oral, Sprague-Dawley, active + Antiandrogenic + anti-androgenic.
Where [12] appears, read: duration: 10 days, oral, Sprague-Dawley, active + Antiandrogenic + anti-androgenic.
The mark [13] stands for this setting: duration: 10 days, oral, Sprague-Dawley, active + Negative + Antiandrogenic + anti-androgenic + negative.

Where “and” joins values, the source holds several entries; their conditions need not be identical. Equal values may be shown once.

`C[C@H]1CCCC(=O)CCCCCc2cc(O)cc(O)c2C(=O)O1` [Zearalanone]: in the data set with Rattus norvegicus [1] (setting [6]), the LEL came out at 0.18 mg/day.
Regarding `CCCCCOC(=O)c1ccccc1C(=O)OCCCCC` [Dipentyl phthalate], the NOEL with Rattus norvegicus [2] was determined as 50 mg/kg-day. In the data set with Rattus norvegicus [1] (setting [7]), the LOEL is 1000 mg/kg-day and the NOEL worked out at 200 mg/kg-day.
Turning to `CCCCCCCCCc1ccccc1O` [n-Nonylphenol], the LOEL in the data set with Rattus norvegicus [1] (duration: 10 days, oral, Sprague-Dawley, active + Negative + Antiandrogenic + anti-androgenic + slight delay in timing of PPS, but only 33% of rats had complete separation by end of…) was 100 mg/kg-day and 160 mg/kg-day. Besides, the LEL in the data set on Rattus norvegicus [1] (setting [8]) came to 100 mg/kg-day.
The NOAEL is the highest tested level that showed no adverse finding. The term LOAEL denotes the lowest dose or exposure tested at which an adverse effect was seen. With `C=C(C)C` [Isobutene], the NOAEL in the data set on Rattus norvegicus [3] (reproduction developmental, duration: 17 days, inhalation, F, Wistar) is 18400 mg/m3; in the data set on Rattus norvegicus [3] (setting [9]), 14.9 mg/kg-day; with Rattus norvegicus [3] (setting [10]) it was 14.9 mg/kg-day; in the data set with Rattus norvegicus [3] (subchronic, duration: 13 weeks, inhalation, F, Sprague-Dawley) it was 18400 mg/m3; in the data set on Rattus norvegicus [3] (subchronic, duration: 13 weeks, inhalation, M, Sprague-Dawley), 18400 mg/m3; in the data set with Rattus norvegicus [4] (short-term, duration: 28 days, gavage, Sprague-Dawley), 149 mg/kg-day. Further, the LOAEL in the data set on Rattus norvegicus [3] (setting [9]) and in the data set with Rattus norvegicus [3] (setting [10]) was 149 mg/kg-day throughout.
`Cc1c(O)ccc2c1CC[C@@H]1[C@@H]2CC[C@]2(C)[C@@H](O)CC[C@@H]12` [4-Methylestradiol] came in with an LEL with Rattus norvegicus [1] (setting [8]) of 0.005 mg/day.
Take `CC(=O)[C@@]1(O)CC[C@H]2[C@@H]3C[C@H](C)C4=CC(=O)CC[C@]4(C)[C@H]3CC[C@@]21C` [Medroxyprogesterone]: in the data set with Rattus norvegicus [1] (setting [7]), the LOEL was 100 mg/kg-day and the NOEL was determined as 20 mg/kg-day.
Regarding `NS(=O)(=O)C(F)(F)C(F)(F)C(F)(F)C(F)(F)C(F)(F)C(F)(F)C(F)(F)C(F)(F)F` [Perfluorooctanesulfonamide], the NOAEL with Rattus norvegicus [5] (acute, duration: 1 days, oral, gavage, M, Sprague-Dawley, Hepatic: No alterations in liver weight) turned out to be 5 mg/kg-day.
Take `O=C1CCC(=O)N1c1cc(Cl)cc(Cl)c1` [N-(3,5-Dichlorophenyl)succinimide]: in the data set on Rattus norvegicus [1] (setting [11]), the LOEL stood at 100 mg/kg-day and the NOEL was 50 mg/kg-day.
For the compound `CCCCC(CC)COC(=O)c1ccccc1C(=O)O` (stereo not drawn) [MEHP], in the data set with Rattus norvegicus [1] (setting [12]), the LOEL stood at 50 mg/kg-day and the NOEL was determined as 10 mg/kg-day.
Consider `C1CO1` [Ethylene oxide], for which the NOAEL in the data set on Rattus norvegicus [5] (developmental, duration: 364 days, inhalation, whole body, M/F, CD, developmental) amounted to 18 mg/m3.
In the data set with Rattus norvegicus [1] (setting [6]), `C#C[C@@]1(OC(=O)CC)C[C@@H]2CC[C@@H]3[C@H](CC[C@@]4(C)[C@H]3CC[C@]4(C#C)OC(=O)CC)[C@@]2(C)C1` [Anordrin] gave an LEL of 0.0025 mg/day.
Turning to `N#Cc1c(Cl)cccc1Cl` [2,6-Dichlorobenzonitrile], in the data set with Rattus norvegicus [1] (setting [13]), the LOEL came to 150 mg/kg-day and the NOEL was 60 mg/kg-day.
`COc1ccc(C(=O)c2ccccc2)c(O)c1` [2-Hydroxy-4-methoxybenzophenone]: the NOEL with Rattus norvegicus [4] (F) was < 196 mg/kg-day; with Rattus norvegicus [4] (M/F) it was < 300 mg/kg-day. In the data set with Rattus norvegicus [1] (uterotrophic, duration: 4 days, oral, diet, Active), the LEL came out at 1520 mg/kg-day.
With `CCCCOCCOCCOCc1cc2c(cc1CCC)OCO2` [Piperonyl butoxide], in the data set on Rattus norvegicus [1] (duration: 10 days, oral, Sprague-Dawley, inactive + Negative + Negative + anti-androgenic + see note), the NOEL is 500 mg/kg-day.
Regarding `C[C@]12CC[C@H](O)CC1=CC[C@@H]1[C@@H]2CC[C@]2(C)C(=O)CC[C@@H]12` [Dehydroepiandrosterone], the LEL was 6 mg with Rattus norvegicus [1] (setting [8]); 1 mg/day in the data set on Rattus norvegicus [1] (uterotrophic, duration: 21 days, Active); 2000 mg/kg-day with Rattus norvegicus [1] (uterotrophic, duration: 28 days, oral, diet, Active); 30 mg/kg-day in the data set on Rattus norvegicus [1] (uterotrophic, duration: 36 days, injection, subcutaneous, Active). In addition, in the data set with Rattus norvegicus [1] (setting [8]), the “LEL (mg/100 g BW)” value amounted to 0.6.
For `C[C@H]1CCC[C@H](O)CCC/C=C/c2cc(O)cc(O)c2C(=O)O1` [alpha-Zearalenol], the LEL in the data set on Rattus norvegicus [1] (setting [6]) stood at 0.01 mg/day.
Consider `CC(=O)S[C@@H]1CC2=CC(=O)CC[C@]2(C)[C@H]2CC[C@@]3(C)[C@@H](CC[C@@]34CCC(=O)O4)[C@H]12` [Spironolactone], for which, in the data set on Rattus norvegicus [1] (setting [7]), the LOEL amounted to 40 mg/kg-day and the NOEL turned out to be 8 mg/kg-day.
